Consider 3 molecules from patent US8399503B2, “Spirocyclic azaindole derivatives” (Gruenenthal GmbH, priority 2006, dated 2013).

Counter-ions that a name gives are not always drawn.

One data set deals with human μ-opiate receptor (Homo sapiens, UniProt P35372). The experiment in a line: μ binding: [3H]-naloxone displacement, membrane preparation of CHO-K1 cells expressing the human μ-opiate receptor. The settings on record: [3H]-naloxone 1 nmole/l; Cheng-Prusoff conversion; read-out: μ-Opioid receptor, Ki value.
human μ-opiate receptor, sequence (P35372 whole entry): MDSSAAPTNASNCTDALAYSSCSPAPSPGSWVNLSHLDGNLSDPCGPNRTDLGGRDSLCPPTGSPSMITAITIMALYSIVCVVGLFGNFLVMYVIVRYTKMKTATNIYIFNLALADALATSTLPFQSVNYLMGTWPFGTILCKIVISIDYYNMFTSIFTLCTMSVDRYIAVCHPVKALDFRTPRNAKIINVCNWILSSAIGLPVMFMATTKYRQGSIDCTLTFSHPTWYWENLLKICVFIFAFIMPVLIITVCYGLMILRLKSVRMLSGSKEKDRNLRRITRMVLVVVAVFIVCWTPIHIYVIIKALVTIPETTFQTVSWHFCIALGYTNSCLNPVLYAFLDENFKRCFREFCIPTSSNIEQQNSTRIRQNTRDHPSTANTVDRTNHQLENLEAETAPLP

With `CN(C)C1(c2ccccc2)CCC2(CC1)SCCc1c2[nH]c2ncccc12` (stereo not drawn) (as salt: citrate), the melting point – broadly, the temperature, or range, at which the solid turns liquid – was 246 to 253 °C.

In turn, `CN(C)C1(c2ccccc2)CCC2(CC1)SCCc1c2[nH]c2ccncc12` (stereo not drawn) (as salt: citrate) came in with a melting point of 163 to 168 °C.

With `c1ccc(CC2(N3CCOCC3)CCC3(CC2)OCCc2c3[nH]c3ncccc23)cc1` (stereo not drawn) [Example 19, 4-benzyl-4-morpholino-spiro[cyclohexane-1,8′-(5,6,8,9-tetrahydropyrano[3,4-b]-7-azaindole)]], the Ki (in general, a dissociation constant, usually derived from enzyme kinetics or from competition with a known ligand) on human μ-opiate receptor is 2.91 µM.
